Data reported in patent US9828326B2, “Amooranin compounds and analogs thereof and related methods of use” (priority 2011, dated 2017).
Marks after values point to notes of the source that are not given here.

Legend:
[1] = mice; cited from earlier work
[2] = tested on: Bcl-2; assay: Immunohistochemistry of Bcl-2 in mammary tumors; format: in vivo, Sprague-Dawley rats
Description: (§1) Serial sections of tumor tissue were used processed for immunohistochemical analysis. Cell proliferation was studied by immunohistochemical detection of proliferating cell nuclear antigen (PCNA) as a proliferation marker. The analysis of apoptotic cells in tumor sections were performed by using TdT-FragEL™ DNA fragmentation detection assay kit (EMD Biosciences, Inc., San Diego, Calif.). The protein expression of Bax (apoptosis inducer),Bcl-2 (apoptosis repressor), ER-a, ER-β, cyclin D1 and β-catenin were determined. The immunohistochemical slides were visualized under a light microscope (BX43, Olympus, Center Valley, Pa.) and at least 1,000 cells/animal were analyzed. Results were expressed as percentage of immunopositive cells.

[3] = design: species or system Sprague-Dawley rats; conditions: rat, in vivo, 1.6 mg/kg
Description: The possible toxicity of high dose (1.6 mg/kg) of AMR-Me was studied by investigating hepatic and renal histopathological characteristics using H&E staining.

[4] = tested on: Bax; assay: Immunohistochemistry of Bax in mammary tumors; format: in vivo, Sprague-Dawley rats
Description: as §1

[5] = tested on: breast cancer cells; conditions: cited from earlier work
[6] = tested on: ER-α; assay: Immunohistochemistry of ER-α in mammary tumors; format: in vivo, Sprague-Dawley rats; conditions: low (0.8 mg/kg) or medium (1.2 mg/kg) dose + DMBA
Description: as §1

[7] = General observations: body weight, food and water intake; format: in vivo, Sprague-Dawley rats
Description: The DMBA was dissolved in corn oil.

[8] = tested on: BAD; assay: RT-PCR of tumor samples, BAD; format: in vivo, Sprague-Dawley rats; conditions: tumors of AMR-Me + DMBA rats
Description: (§2) Total RNA from 20 mg of tumor sample was extracted using Quick RNA® mini Prep kit following the manufacturer's instructions. The expression levels of apoptotic and anti-apoptotic genes were monitored by reverse transcription-polymerase chain reaction (RT-PCR) using the cDNA verso kit with a temperature scale of 42° C. for 30 min for reverse transcription, and 32 cycles of 94° C. for 30 s, 56° C. for 30 s, and 72° C. for 30 s. The RT-PCR was carried out using the primers: […]
(§3) The PCR products were analyzed on 1% agarose gel and visualized by ethidium bromide staining.

[9] = tested on: Bax; assay: RT-PCR of tumor samples, BAX; format: in vivo, Sprague-Dawley rats; conditions: tumors of AMR-Me + DMBA rats
Description: as §2, §3

[10] = tested on: PARP; assay: RT-PCR of tumor samples, PARP; format: in vivo, Sprague-Dawley rats; conditions: tumors of AMR-Me + DMBA rats
Description: as §2, §3

[11] = tested on: apoptotic cells in tumor sections; assay: TdT-FragEL DNA fragmentation detection assay in tumor sections (apoptosis); format: in vivo, Sprague-Dawley rats
Description: as §1

[12] = tested on: β-catenin; assay: Immunohistochemistry of β-catenin in mammary tumors; format: in vivo, Sprague-Dawley rats; conditions: 0.8 mg/kg or 1.2 mg/kg + DMBA
Description: as §1

[13] = tested on: proliferating cell nuclear antigen (PCNA); assay: Immunohistochemical detection of PCNA in tumor sections (cell proliferation); format: in vivo, Sprague-Dawley rats
Description: as §1

[14] = tested on: CASP3; assay: RT-PCR of tumor samples, CASP3; format: in vivo, Sprague-Dawley rats; conditions: tumors of AMR-Me + DMBA rats
Description: as §2, §3

[15] = tested on: BCL2; assay: RT-PCR of tumor samples, BCL2; format: in vivo, Sprague-Dawley rats; conditions: tumors of AMR-Me + DMBA rats
Description: as §2, §3

[16] = tested on: breast cancer MCF-7 cells; conditions: in vitro; cited from earlier work
[17] = tested on: cyclin D1; assay: Immunohistochemistry of cyclin D1 in mammary tumors; format: in vivo, Sprague-Dawley rats; conditions: medium (1.2 mg/kg) or high (1.6 mg/kg) dose + DMBA, vs DMBA control
Description: as §1

[18] = tested on: Bax; assay: Western blot of Bax in tumor tissue; format: in vivo, Sprague-Dawley rats; conditions: all doses (0.8, 1.2, 1.6 mg/kg) + DMBA
Description: (§4) Total proteins were extracted from tumor tissues with lysis buffer (containing 20 mM HEPES, 350 mM NaCl, […], 1 mM MgCh, 20% glycerol, and 1% NP-40), boiled and separated by 4-20% gradient sodium dodecyl sulfate-polyacrylamide gel electrophoresis. The proteins were transferred to polyvinylidene fluoride membranes (Santa Cruz Biotechnology Inc., Santa Cruz, Calif.), and reacted with primary mouse monoclonal antibodies to Bax, Bcl-2, Bel-XL and β-Actin (dilution 1:200) and subsequently with anti-mouse secondary antibodies (dilution 1:1,000) conjugated to horseradish peroxidase. The immunoreactions were detected by an enhanced chemiluminescence detection kit (Them10 Scientific, Rockford, Ill.) and relative intensities of bands on blots were quantitated by autoluminography using a Kodak digital imaging system. Normalization of Western blot was ensured by β-Actin.

[19] = tested on: CASP7; assay: RT-PCR of tumor samples, CASP7; format: in vivo, Sprague-Dawley rats; conditions: tumors of AMR-Me + DMBA rats
Description: as §2, §3

[20] = tested on: Bcl-2; assay: Western blot of Bcl-2 in tumor tissue; format: in vivo, Sprague-Dawley rats
Description: as §4

[21] = tested on: DMBA-induced mammary tumorigenesis; assay: Chemoprevention of DMBA-induced mammary tumorigenesis; conditions: for No. of rats with tumors/total rats / Total tumor burden / Tumor Incidence / Average tumor weight: + DMBA; for Average tumor weight: mean±SEM
Description: Following an acclimatization period of one week, rats (−43 days of age) were randomly divided into six groups of 7-11 animals in each. […] Two groups (groups A and B) were maintained on the basal diet without any further treatment, whereas the remaining four groups (groups C, D, E and F) were fed with AMR-Me through oral gavage three times a week (Monday-Wednesday-Friday). AMR-Me was mixed in polyethylene glycol (Sigma-Aldrich, St. Louis, Mo.) and administered by gently securing the animal by holding the skin back of its head and delivering the drug slowly via an animal feeding needle (Popper and Sons, Inc., New Hyde Park, N.Y.) attached to a I-ml syringe (Becton Dickinson, Franklin Lakes, N.J.). This technique ensured the accurate oral dosing of the test material. Three doses of AMR-Me were used: 0.8 mg/kg (for group C), 1.2 mg/kg (for group D) and 1.6 mg/kg (for groups E and F). These three doses (low, medium and high) represent 40, 60 and 80% of calculated maximum tolerated dose (MTD) in rats, respectively. The rat MTD was calculated based on the MTD in mice (3 mg/kg/day).
Following two week of aforementioned treatment regimen, at −57 days of age, mammary carcinogenesis was initiated in all animals belonging to groups B, C, D and E by a single administration of the mammary carcinogen, DMBA at 50 mg/kg body weight by gavage. The DMBA was dissolved in corn oil. This dose of DMBA was chosen so that substantial tumor incidence could be produced but not so high as to overwhelm the chemopreventive action of AMR-Me. Oral treatment of rats with AMR-Me in groups C, D, E and F were continued for 16 weeks following the DMBA administration (i.e., a total period of 18 weeks). Food and water intake as well as behavioral patterns were monitored daily and body weights of animals were recorded every alternate week.
Animals were palpated along the milk line twice a week starting 4 weeks following DMBA treatment to detect the presence of mammary tumors. All animals were sacrificed at 16 weeks post-DMBA treatment (i.e., 18 weeks following the start of the experiment).
Following an overnight fast, animals from each group were anesthetized between 09:00 and 11:00 h by intramuscular injection of 40-87 mg/kg ketamine and 5-13 mg/kg xylazine. The skin was dissected out to expose mammary tumors. The tumors (approximated spheres) were separated from mammary gland parenchyma, carefully excised, rinsed with phosphate-buffered saline (pH 7.4) to flush out any blood, blotted dry on a paper towel, weighed, and photographed. Each tumor was measured in two perpendicular directions with a vernier caliper to the nearest mm to obtain an average diameter. The representative tumor tissue as well liver and kidney were harvested and either immediately flash frozen in liquid nitrogen for molecular work or fixed in 4% paraformaldehyde. Later, serial tumor sections (−15-μm thick) were prepared using a microtome. These sections were used for histopathological assessment by hematoxylin and eosin (H&E) staining.

[22] = medium (1.2 mg/kg) or high (1.6 mg/kg) dose + DMBA
[23] = group C: 0.8 mg/kg oral three times a week, 18 weeks
[24] = group D: 1.2 mg/kg oral three times a week, 18 weeks
[25] = group E: 1.6 mg/kg oral three times a week, 18 weeks

COC(=O)[C@]12CCC(C)(C)C[C@H]1C1=CC[C@@H]3[C@@]4(CO)CCC(=O)C(C)(C)[C@@H]4CC[C@@]3(C)[C@]1(C)CC2 [AMR-Me, 25-hydroxy-3-oxoolean-12-en-28-oic Acid Methyl Ester]
maximum tolerated dose (MTD) [1]: 3 mg/kg/day | expression of cytoplasmic Bcl-2 ([2]; low dose 0.8 mg/kg + DMBA): not altered | Bcl-2-positive cells [2, 22]: significant (P<0.005 or 0.001) reduction | hepatotoxicity (hepatic histopathology) [3]: no hepatotoxicity was observed | nephrotoxicity (renal histopathology) [3]: did not exhibit any nephrotoxicity | frequency of Bax-immunopositive cells ([4]; low dose 0.8 mg/kg + DMBA): extremely low | Bax/Bcl-2 ratio [4, 22]: elevated the Bax/Bcl-2 ratio in a dose-responsive manner | Bax-positive cells ([4]; medium (1.2 mg/kg) or high (1.6 mg/kg) dose + DMBA, vs DMBA alone): significantly (P<0.001) increased | inhibition of proliferation of several breast cancer cells, potency ([5]; relative to the parent compound): greater potency than the parent compound AMR | intra-tumor expression of ER-α [6]: reduced | ratio of ER-α/ER-β [6]: concomitant drop | body weights among rat groups ([7]; 0.8, 1.2 or 1.6 mg/kg, any time point): No significant difference | food and water intakes ([7]; normal animals, 1.6 mg/kg body weight, 18 weeks): unaltered | BAD mRNA level (RT-PCR) [8]: up-regulation | BAX mRNA level (RT-PCR) [9]: up-regulation | PARP mRNA level (RT-PCR) [10]: up-regulation | apoptotic index (AI) ([11]; low dose 0.8 mg/kg + DMBA, vs DMBA control): no noticeable difference | apoptotic index (AI) ([11]; medium (1.2 mg/kg) or high (1.6 mg/kg) dose + DMBA, vs DMBA): significant increase (P<0.001) | cytosolic β-catenin expression [12]: significant (P<0.001) decrease | nuclear β-catenin expression [12]: significant (P<0.001) decrease | proliferation of tumor cells (PCNA-positive cells) ([13]; low dose 0.8 mg/kg + DMBA): marginal reduction in the proliferation of tumor cells | PCNA labeling index (LI) ([13]; medium (1.2 mg/kg) or high (1.6 mg/kg) dose + DMBA, vs DMBA control): statistically significant (P<0.001) decrease | CASP3 mRNA level (RT-PCR) [14]: up-regulation | BCL2 mRNA level (RT-PCR) [15]: down-regulation | potency against MCF-7 cells, concentrations [16]: down to the nanomolar range | percentage of cyclin D1-positive cells [17]: significant (P<0.05 or 0.001) decrease | Bax expression (Western blot) [18]: elevated the Bax expression | CASP7 mRNA level (RT-PCR) [19]: up-regulation | Bcl-2 expression (Western blot) ([20]; high dose 1.6 mg/kg + DMBA): complete abrogation | Bcl-2 expression (Western blot) ([20]; low or medium dose + DMBA): did not modify Bel-2 expression | No. of rats with tumors/total rats [21, 23]: 5/8 | Total tumor burden [21, 23]: 57.5 g | Tumor Incidence [21, 23]: 62% | Average tumor weight [21, 23]: 11.5 ± 4.9 ^ g | No. of rats with tumors/total rats [21, 24]: 2/7 | Total tumor burden [21, 24]: 9.6 g | Tumor Incidence [21, 24]: 28^a % | Average tumor weight [21, 24]: 3.2 ± 1.5^b g | No. of rats with tumors/total rats [21, 25]: 2/7 | Total tumor burden [21, 25]: 0.8 g | Tumor Incidence [21, 25]: 28^a % | Average tumor weight [21, 25]: 0.38 ± 0.03^b g | visible mammary tumors in AMR-Me control ([21]; group F: 1.6 mg/kg without DMBA, 18 weeks): no visible mammary tumors | improvement of cellular architecture in tumor tissue (H&E) ([21]; high dose 1.6 mg/kg + DMBA): substantial improvement of cellular architecture | size of tumors ([21]; high dose 1.6 mg/kg + DMBA): striking reduction in size | size of tumors ([21]; low dose 0.8 mg/kg + DMBA): reduced the size of tumors | tumor histopathological features (H&E) ([21]; low dose 0.8 mg/kg + DMBA): did not modify tumor histopathological features | improvement of cellular architecture in tumor tissue (H&E) ([21]; medium dose 1.2 mg/kg + DMBA): moderate | size of tumors ([21]; medium dose 1.2 mg/kg + DMBA): further decrease in the size of tumor

CC1(C)CC[C@]2(C(=O)O)CC[C@]3(C)C(=CC[C@@H]4[C@@]5(CO)CCC(=O)C(C)(C)[C@@H]5CC[C@]43C)[C@@H]2C1 [AMR, 25-Hydroxy-3-oxoolean-12-en-28-oic Acid]
anti-neoplastic activity ([5]; plant-derived compound): relatively weak
